Reference: patent US20230233453A1, “SUXAMETHONIUM COMPOSITION AND PREFILLED SYRINGE THEREOF” (LABORATOIRE AGUETTANT, priority 2020, published 2023)

Legend:
[1] = Sensitivity of suxamethonium to oxidizing conditions; type: physicochemical
[2] = Degradation of suxamethonium depending on pH; type: physicochemical; conditions: pH 5.0 vs pH 3.5

**Q.** Which results are given for `C[N+](C)(C)CCOC(=O)CCC(=O)OCC[N+](C)(C)C` [suxamethonium]?
**A.** sensitivity to oxidizing conditions [1]: not sensitive to oxidizing conditions; degradation depending on pH [2]: faster at pH 5.0 than at pH 3.5
